Laboratory results reported in patent US20220087987A1, “A METHOD FOR TREATING SWI/SNF COMPLEX-DEFICIENT CANCERS COMPRISING GLUTATHIONE (GSH) METABOLIC PATHWAY INHIBITOR” (National Cancer Center, priority 2018, published 2022).

Columns and labels:
[1] = tested on: ARID1A-deficient OVISE OCCC xenografts; experiment: Mouse xenograft model, OVISE; type: in vivo, mice; conditions: PRIMA-1 25 mg/kg
Method: All mouse experiments were approved by the National Cancer Center (NCC) animal Ethical Committee. Cells were counted and re-suspended in a 1:1 mixture of 100 μl culture medium and 100 μl Matrigel (BD Biosciences) on ice. Thereafter, cells (RMG-I: 2×10^6 cells/mouse; TOV21G: 2×10^5 cells/mouse for ARP-246 treatment and 1×10^6 cells/mouse for BSO treatment; OVISE: 2×10^6 cells/mouse; TOV21G-shNT: 2×10^5 cells/mouse; and TOV21G-shGCLC: 2×10^5 cells/mouse) were injected subcutaneously into the flank of 6-week-old female BALB/c-nu/nu mice (CLEA and Charles River). In the subcutaneous model, once the tumors were palpable (about 3-14 days after implantation), mice were randomly divided into two groups. In the drug treatment group, mice were injected intraperitoneally with either PBS or compounds [APR-246 (50 mg/kg), PRIMA-1 (25 mg/kg), or BSO (750 mg/kg)] once daily for 12-14 days. In the doxycycline (Dox) treatment study, TOV21G-shNT cells and TOV21G-shGCLC cells were injected into the flanks of 6-week-old female BALB/c-nu/nu mice. […] Tumor growth was measured every several days using calipers. The volume of implanted tumors was calculated using the formula V=L×W2/2, where V is volume (mm^3), L is the largest diameter (mm), and W is the smallest diameter (mm). […]

ARID1A-WT HCT116 cells = experiment: Drug library screen, cell viability (CellTiter-Glo); type: cell-based, human; set-up: key to Cell viability, WT: % viability relative to DMSO solvent-treated cells; conditions: HCT116 ARID1A-WT; 10 μM for 5 days; relative to cells treated with solvent (DMSO)
How it was run: (§1)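 Luminescent ATP read-out (CellTiter-Glo) at day 5, normalised to solvent (DMSO) controls, in paired HCT116 lines, ARID1A knockout versus wild type. Candidates selected where KO cells fell below 40% viability and WT cells stayed above 80%.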

[2] = tested on: ARID1A-WT and ARID1A-KO HCT116 cells; experiment: Cell viability and colony formation assays; type: cell-based, human; conditions: cell viability 5 days, colony formation 10 days
Method: Cell viability was examined by measuring the cellular ATP level using the CellTiter-Glo Luminescent Cell Viability Assay (Promega). To measure cell viability after siRNA-mediated knockdown, cell lines were transfected with siRNAs (25 nM) using Lipofectamine RNAiMAX. After 48 hrs, cells were trypsinized and repeatedly transfected with siRNAs (25 nM) using Lipofectamine RNAiMAX. Cells were trypsinized after a further 48 hrs, counted, and reseeded at the specified density in 96-well plates. To measure cell viability after drug treatment, cells were trypsinized, counted, reseeded at the specified density in 96-well plates, and exposed to the indicated concentrations of drugs. Cell viability was measured using the CellTiter-Glo Luminescent Cell Viability Assay. Luminescence was measured using an Envision Multi-label plate reader (PerkinElmer).
The effect of drug treatment on cancer cell survival was evaluated in a colony formation assay. Cells were trypsinized, counted, reseeded at the specified density in 12-well plates, exposed to the indicated concentrations of drugs for 10-14 days, and fixed for 10 min in 50% (v/v) methanol containing 0.01% (w/v) crystal violet. Images were taken on LAS-3000 Imaging System (Fujifilm) and colonies were counted using Multi Gauge software.

ARID1A-KO HCT116 cells = experiment: Drug library screen, cell viability (CellTiter-Glo); type: cell-based, human; set-up: key to Cell viability, KO: % viability relative to DMSO solvent-treated cells; conditions: HCT116 ARID1A-KO; 10 μM for 5 days; relative to cells treated with solvent (DMSO)
How it was run: as §1

p53, p21 = experiment: Immunoblot for p53 and p21; type: cell-based, human; conditions: ARID1A-WT and ARID1A-KO HCT116; 50 μM PRIMA-1, 50 μM APR-246, 10 μM Nutlin3a, 16 hrs
Method: The soluble fractions of whole-cell lysates were mixed with SDS sample buffer. […] The soluble fractions were mixed with SDS sample buffer. Tumor samples derived from xenografts were weighed and washed with PBS. […] The homogenized tumor samples were diluted in an additional 450 μl of NETN420 buffer, incubated for 30 min on ice, and centrifuged at 4° C. for 10 min at 15,000 rpm. The soluble fractions of whole-cell lysates were mixed with SDS sample buffer. Proteins were separated by SDS-PAGE, transferred to PVDF membranes, and immunoblotted with the indicated antibodies. β-actin was used as a loading control. Membranes were blocked overnight at 4° C. or for 1 hr at 25° C. with PVDF Blocking Reagent for Can Get Signal (TOYOBO) and then probed with Can Get Signal Solution 1 (TOYOBO) containing primary antibodies. After washing with TBS containing 0.1% Tween 20, the membranes were incubated with TBS containing 0.1% Tween 20, 1% BSA, and horseradish peroxidase-conjugated anti-mouse or anti-rabbit secondary antibodies, and visualized using Western Lightning ECL Pro (Perkin Elmer). Chemiluminescence signals were measured using LAS-3000 Imaging System (Fujifilm). Signal intensities were measured using Multi Gauge software.

## O=C1C2CCN(CC2)C1(CO)CO [PRIMA-1]
[1]
  body weight of mice: without causing significant weight loss
  growth of xenografts (tumor volume): significantly suppressed the growth
ARID1A-WT HCT116 cells
  Cell viability, WT: 84.25
[2]
  growth / survival of ARID1A-KO versus ARID1A-WT cells: reproducibly suppressed the growth of ARID1A-KO cells but not ARID1A-WT cells
ARID1A-KO HCT116 cells
  Cell viability, KO: 12.95
p53, p21
  expression of p53 and p21: did not markedly affect expression of p53 or p21
